Experimental findings from ChEMBL document CHEMBL1150751, “Bioactive components of Allamanda schottii” (J Nat Prod, 1988) are described below.

Values after ≈ are worked out from the molar mass of the structure shown. Active and inactive are the calls of the source. No cut-off for these calls is given here. Some results are limits rather than exact numbers.

By LC50 is commonly meant the concentration that kills 50% of the test population. A low value points to greater toxicity. As usually defined, the T/C is the ratio of treated to control.

For series [1], the system named is Artemia. Briefly: Toxicity in brine shrimp. The series is classed as organism-based. As to conditions: in vivo.
Series [2] deals with Agrobacterium tumefaciens. Briefly: Antitumor activity against Agrobacterium tumefaciens-induced crown gall tumor in potato tubers by potato disk assay. In kind it is functional.
Series [3] in a line: Cytotoxicity against human 9KB cells. The series is classed as functional. As to conditions: read-out: ED50 (the source's name).
In series [4] the test system is P388. Briefly: Antileukemic activity against mouse P388 cells xenografted in mouse. In kind it is functional.

`C/C=C1/C(=O)O[C@@]23C=C[C@H]4C[C@H](O)O[C@@H](O[C@H]12)[C@H]43` [ALLAMCIN] gave an LC50 in series [1] of over 1000 ppm. For the same compound, the inhibition entry in series [2] is “inactive”.
Take `C/C=C1/C(=O)O[C@]23C=C[C@@H]4C(C(=O)OC)=CO[C@H](O[C@@H]12)[C@@H]43` [PLUMERICIN]: the LC50 in series [1] came out at 1.7 ppm. In addition, in series [3], the EC50 was determined as 2.6 µg/mL (≈ 8.96 µM). Further, the “inhibition (INH)” value in series [2] stood at 44%.
As to `COc1cc2ccc(=O)oc2cc1O` [SCOPOLETIN], the LC50 in series [1] is recorded as 55 ppm. Besides, the EC50 in series [3] came out at 16 µg/mL (≈ 83.3 µM). For the same compound, the T/C in series [4] is reported as 133%. In addition, the “inhibition (INH)” value in series [2] was 20%.
As to `COc1cc2ccc(=O)oc2cc1OC` [SCOPARONE], in series [1], the LC50 was 349 ppm. The EC50 in series [3] came to 61 µg/mL (≈ 296 µM). Moreover, in series [2], the inhibition entry was “inactive”.
With `C/C=C1/C(=O)O[C@@]23C=C[C@H]4[C@@H](C(=O)OC)[C@H](O)O[C@@H](O[C@H]12)[C@H]43` [ALLAMANDIN], the LC50 in series [1] is 21.3 ppm. In addition, the EC50 in series [3] is 2.1 µg/mL (≈ 6.81 µM). The T/C in series [4] was found to be 145%. The “inhibition (INH)” value in series [2] came to 51%.
On to `COc1cc([C@H]2OC[C@H]3[C@@H]2CO[C@H]3c2ccc(O)c(OC)c2)ccc1O` [PINORESINOL], for which the median lethal concentration (LC50) in series [1] stood at 377 ppm. Further, the EC50 in series [3] is 100 µg/mL (≈ 279 µM). In series [2], the inhibition entry is “inactive”.
The compound `C/C=C1\C(=O)O[C@]23C=C[C@@H]4C(C(=O)OC)=CO[C@H](O[C@@H]12)[C@@H]43` [ISOPLUMERICIN] yielded an LC50 in series [1] of 1.7 ppm. Also, the EC50 in series [3] is 2.7 µg/mL (≈ 9.3 µM). In series [4], the T/C was determined as 145%. Besides, the “inhibition (INH)” value in series [2] was found to be 44%.
